Source: patent publication US20250082656A1, “DOSAGE REGIMENS FOR TREATMENT OF DENGUE INFECTION” (Atea Pharmaceuticals, Inc., priority 2022, published 2025)

Experiments:
Usutu = experiment: microbe, parasite or virus in culture; format: cell-based; conditions: TC-508, Huh-7, VYR assay
DENV-4 = experiment: Antiviral assay with FC read-out, DENV-4; format: cell-based; conditions: Dengue virus, DENV4; DENV-4 TVP-360, Huh-7, FC read-out
HCV = experiment: Antiviral specificity panel, HCV; format: cell-based, hepatitis C virus
[1] = system: Respiratory syncytial virus; experiment: Antiviral specificity panel, RSV; format: cell-based; conditions: human respiratory syncytial virus, HEp-2; RNA virus, HEp2
Rhinovirus = experiment: Antiviral specificity panel, Rhinovirus; format: cell-based; conditions: Enterovirus; RNA virus, H1-HeLa
[2] = Cytotoxicity in CEM-SS cells; format: cell-based; conditions: human, Table 2, CEM-SS
Description: (§1) To assess the antiviral specificity of Compound 1 (AT-281), serial dilutions were incubated with various host cell lines infected with a panel of DNA and RNA viruses other than flaviviruses. The activity of Compound 1 (AT-281) was measured in infected cells using the neutral red assay to determine the effective concentration required to inhibit viral replication 50% (EC50) (described in Example 3) and the threshold concentration required to obtain a perceptible effect on 50% of the cells incubated without virus (CC50). Compound 1 (AT-281) had no activity against the DNA viruses tested and was only weakly or not active against several RNA viruses (Table 2).

[3] = Cytotoxicity in HEp2 cells; format: cell-based; conditions: human, Table 2, HEp2
Description: as §1

Dengue serotype 2 = experiment: In vitro antiviral potency, summary over strains, Dengue serotype 2; format: cell-based; conditions: Dengue virus
Human PBMC = conditions: Table 1A, human PBMC without virus; highest concentration tested
DENV1 NS5 = DENV1 NS5 (Dengue virus type 1, UniProt P17763); experiment: Nucleotide analogue incorporation / discrimination assay, DENV1 NS5; format: biochemical; conditions: GTP for AT-9010 and AT-9002, UTP for SOF-TP
Chain of DENV1 NS5 (P17763 2494-3392): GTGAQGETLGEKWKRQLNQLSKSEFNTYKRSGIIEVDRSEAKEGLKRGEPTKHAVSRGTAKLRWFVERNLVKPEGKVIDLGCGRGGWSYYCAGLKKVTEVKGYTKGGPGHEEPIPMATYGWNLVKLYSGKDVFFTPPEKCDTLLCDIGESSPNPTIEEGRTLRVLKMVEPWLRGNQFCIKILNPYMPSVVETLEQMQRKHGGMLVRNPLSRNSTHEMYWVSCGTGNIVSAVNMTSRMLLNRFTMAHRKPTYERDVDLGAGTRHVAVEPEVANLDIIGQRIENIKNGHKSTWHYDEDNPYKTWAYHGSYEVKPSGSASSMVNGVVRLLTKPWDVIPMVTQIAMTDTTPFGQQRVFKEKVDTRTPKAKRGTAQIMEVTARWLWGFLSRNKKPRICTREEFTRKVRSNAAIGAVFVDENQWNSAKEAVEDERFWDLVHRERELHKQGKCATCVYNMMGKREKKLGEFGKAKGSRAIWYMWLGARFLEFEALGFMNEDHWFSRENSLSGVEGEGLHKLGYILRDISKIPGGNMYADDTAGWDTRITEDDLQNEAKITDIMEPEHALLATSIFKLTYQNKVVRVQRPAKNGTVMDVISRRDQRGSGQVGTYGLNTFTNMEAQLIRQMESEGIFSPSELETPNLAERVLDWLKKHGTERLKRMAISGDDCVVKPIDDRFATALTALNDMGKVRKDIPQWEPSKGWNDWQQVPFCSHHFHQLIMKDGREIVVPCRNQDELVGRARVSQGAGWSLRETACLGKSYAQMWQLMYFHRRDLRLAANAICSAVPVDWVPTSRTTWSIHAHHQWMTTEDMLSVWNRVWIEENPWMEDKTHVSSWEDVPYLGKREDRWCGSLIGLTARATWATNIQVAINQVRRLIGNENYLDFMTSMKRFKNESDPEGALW
Description: The chain-terminating efficiency of Compound 5 was measured in competitive nucleotide incorporation assays using all four DENV serotypes. […] In comparison, sofosbuvir triphosphate is incorporated into the RNA less than 1 time for every 100 UTP (native uridine triphosphate) incorporations.
Measurements and quantitations were as in FIG. 19B.
DENV NS5 was pre-incubated with the annealed P10/T20 RNA in an assembly buffer containing 20 mM HEPES pH 7.5, 10% glycerol, 5 mM MgCl2, and 5 mM DTT for 10 min at 30° C. to create an active RNA elongation complex.
Reactions were started by adding AT-9010 with either all four NTPs or UTP, ATP, and CTP only.
Single nucleotide incorporation was tested as follows. Reactions were started by adding the corresponding NTP or analogue. Final concentrations were 1 μM NS5, 0.25 μM P10/T20, 100 μM NTP or analogue in a final buffer containing 20 mM HEPES pH 7.5, 15% glycerol, 5 mM MgCl2, and 5 mM DTT.
Reactions were quenched at the designated time points in 3× volume FBD stop solution (formamide, 10 mM EDTA) and analyzed on 20% acrylamide-bisacrylamide (19:1) […] sequencing gels. RNA products were visualized using a Typhoon FluorImager then analyzed and quantified using ImageQuant software.

[4] = In vivo formation of AT-9010 in PBMCs, rats; parameters: species or system SD rats; conditions: single oral dose 300 mg/kg, 24 h
Description: Monkeys were given an oral dose of Compound 2 (AT-752) equivalent to Compound 1 (AT-281) at 55 mg/kg and blood collected at 12, 24 and 48 h. […] Mouse PBMCs were pooled from 3 animals per time point; Rat and monkey data expressed as mean+/−SD (n=2-3 per time point). […] The experimental procedure is provided in Example 15.
Male naïve SD rats (Beijing Vital River Laboratory Animals Co. Ltd., China) were administered a dose of AT-752 at 300 mg/kg in 40% PEG400, 10% solutol HS15, 50% 100 mM citrate buffer, pH 4.5 (v/v) by oral gavage. Blood samples (n=4) were collected at 1, 2, 4, 8, 12 and 24 h post-dose, plasma separated and stored at −70° C. […] For PBMCs, nine male naïve SD rats were administered a dose of Compound 2 (AT-752) (at a Compound 1 (AT-281) equivalent dose of 300 mg/kg) by oral gavage.
Pharmacokinetic measurements for FIGS. 11, 12, 13, 14, and 15 were analyzed using LC-MS/MS according to the protocol described herein. Plasma samples were prepared for MS analysis by adding internal standards and extracting with 20 volumes chilled ACN. After vortex (800 rpm for 10 min) and centrifugation (4,000 rpm, 15 min, 4° C.), the supernatants (25 μL) were diluted with an equal volume of H2O, mixed and spun again. […]

DENV2 RdRp domain = DENV2 RdRp domain (Dengue virus type 2, UniProt P14340); experiment: Thermal shift assay, DENV2 RdRp domain; conditions: read-out: ΔTM
DENV4 RdRp domain = experiment: Thermal shift assay, DENV4 RdRp domain; conditions: RdRp domain DENV4, 100 μM compound
DENV3 MTase domain = DENV3 MTase domain (Dengue virus type 3, UniProt Q6YMS4); experiment: Thermal shift assay, DENV3 MTase domain; conditions: read-out: ΔTM
Chain of DENV3 MTase domain (Q6YMS4 2492-2753): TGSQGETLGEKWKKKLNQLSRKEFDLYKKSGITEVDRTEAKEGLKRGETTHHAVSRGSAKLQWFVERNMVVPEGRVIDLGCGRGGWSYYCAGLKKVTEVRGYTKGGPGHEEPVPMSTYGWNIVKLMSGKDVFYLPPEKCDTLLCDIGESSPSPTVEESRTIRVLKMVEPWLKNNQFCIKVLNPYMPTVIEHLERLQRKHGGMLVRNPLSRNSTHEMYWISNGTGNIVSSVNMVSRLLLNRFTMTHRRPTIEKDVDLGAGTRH

| SMILES | EC90 (Usutu) [µM] | EC50 (DENV-4) [µM] | selectivity towards HCV (HCV; CC50/EC50) | EC50 (HCV; Hepatitis C virus, RNA virus, Huh-7) [µM] | EC50 [1] [µM] | EC50 (Rhinovirus) [µM] | CC50 [2] [µM] | CC50 [3] [µM] | EC50 (Dengue serotype 2) [µM] | CC50 (Human PBMC) [µM] | Preference (discrimination) native nucleotide > analogue (DENV1 NS5) | concentration of AT-9010 in PBMCs [4] [pmol/10^6 cells] | ΔTm at 100 µM (DENV2 RdRp domain) [°C] | ΔTM (DENV4 RdRp domain) [°C] | ΔTm at 100 µM (DENV3 MTase domain) [°C] |
| --- | --- | --- | --- | --- | --- | --- | --- | --- | --- | --- | --- | --- | --- | --- | --- |
| CNc1nc(N)nc2c1ncn2[C@@H]1O[C@H](CO[P@](=O)(N[C@@H](C)C(=O)OC(C)C)Oc2ccccc2)[C@@H](O)[C@@]1(C)F [Compound 1, isopropyl ((R)-(((2R,3R,4R,5R)-5-(2-amino-6-(methylamino)-9H-purin-9-yl)-4-fluoro-3-hydroxy-4-methyltetrahydrofuran-2-yl)methoxy)(phenoxy)phosphoryl)-L-alaninate] | 0.72 | 1.19 | > 2,000 | 0.05 | > 100 | > 100 | > 100 | > 100 | < 7 | > 85 |  |  |  |  |  |
| C[C@@]1(F)[C@H](O)[C@@H](COP(=O)(O)OP(=O)(O)OP(=O)(O)O)O[C@H]1n1cnc2c(=O)[nH]c(N)nc21 [Compound 5] |  |  |  |  |  |  |  |  |  |  | 7.7 ± 0.5 | 0.439±0.218 | 3.8 ± 0.1 | 4.1 ± 0.1 | 3.5 ± 0.1 |
